Test results as given in US9096689B2, “Methods and compositions for inhibiting angiogenesis” (NORTHWESTERN UNIVERSITY, priority 2007, dated 2015).
“Also recorded” adds a separate entry of the source.

What was measured:
[1] = test system: PC-3 prostate cancer xenografts; experiment: tumorigenicity assay, PC-3 xenografts; type: in vivo, nude mice; settings: 10 mg/kg, i.p.; for growth of PC-3 prostate cancer xenografts: from day 5 post injection
Protocol: PC-3 cells (2×10^6/site) were implanted into hindquarters of nude mice. On day 5 post injection, treatment was commenced with 34-mer and 18-mer (10 mg/kg, i.p.).

angiogenesis = experiment: directed in vivo angiogenesis assay (DIVAA), s.c. matrigel angioreactors; parameters: species or system nude mice; settings: for anti-angiogenic effect in DIVAA: bFGF 37.5 and VEGF 12.5 ng/ml, day 7
Protocol: FIGS. 5A and 5B show the results of a corneal angiogenesis assay. The 34 mer and 18-mer peptides were incorporated with bFGF (50 ng/pellet) into slow-release sucralfate pellets, which were surgically implanted into the cornea of anesthetized mice, 0.5-1 mm from the vascular limbus. The responses were scored on day 5 post implantation and the ingrowth of blood vessels from the cornea to the pellet was considered a positive response. The responses were scored as positive corneas of total implanted: statistical significance was evaluated with Fisher's Exact test. P<0.05 was considered significant. […] The peptides were incorporated with a mix of bFGF and VEGF (37.5 and 12.5 ng/ml, respectively) into angioreactors filled with matrigel. The reactors were implanted s.c onto the flanks of the nude mice. On day 7, The reactors were harvested and photographed (5C). Endothelial cells collected from implants by dilution/centrifugation, stained with FITC-lectin and quantified by flow cytometry (5D).
Finally, the peptides were tested in vivo, in the corneal angiogenesis and directed in vivo angiogenesis assay (DIVAA). The 34-mer derivatives were compared in vivo with parental PEDF peptide, the 34-mer. FIG. 5 A, B: Corneal angiogenesis assay: the peptides were incorporated with bFGF (50 ng/pellet) into slow-release sucralfate pellets, which were surgically implanted into the cornea of anesthetized mice, 0.5-1 mm from the vascular limbus. The responses were scored on day 5 post implantation and the ingrowth of blood vessels from the cornea to the pellet was considered a positive response. The responses were scored as positive corneas of total implanted: statistical significance was evaluated with Fisher's Exact test. P<0.05 was considered significant. […] 5C, D. DIVAA of the 34-mer and derivative peptides. The peptides were incorporated with a mix of bFGF and VEGF (37.5 and 12.5 ng/ml, respectively) into angioreactors filled with matrigel. The reactors were implanted s.c onto the flanks of the nude mice. On day 7, the reactors were harvested and photographed (5C). Endothelial cells collected from implants by dilution/centrifugation, stained with FITC-lectin and quantified by flow cytometry (5D).

[2] = test system: Human microvascular endothelial cells; experiment: endothelial cell chemotaxis assay (bFGF-induced migration); type: cell-based; settings: for inhibition of bFGF-induced migration (chemotaxis): peptide at increasing concentrations; for inhibitor activity on bFGF-induced migration compared with native PEDF: vs rhPEDF at 20 nM
Protocol: The initial testing was done in the endothelial cell chemotaxis assay. Human microvascular endothelial cells to traverse gelatinized microporous membrane up the gradient of bFGF was tested in the absence and in the presence of the 14-, 18- and 23-mer peptides (FIG. 3). Human microvascular endothelial cells were plated on the lower side of gelatinized microporous membrane and allowed to adhere. The peptides (14-, 18 and 23-mer) were added at increasing concentrations to the opposite side of the gelatinized microporous membrane ([…]), alone, or in combination with basic fibroblast growth factor (bFGF, 10 ng/ml). The cells migratied to the opposite side of the membrane were counted in 10 high-powered (100×) fields. Every condition was tested in quadruplicate. bFGF-induced chemotaxis is shown (top line in each graph). Basal migration levels (0.1% bovine serum albumin) are indicated with the dotted line. Triangles (▴) show peptide alone; while squares (▪) show peptide with bFGF. The solid line (below the top line mentioned above) indicates the effect of the recombinant human PEDF (rhPEDF) at 20 nM.
Several truncated variants of P18 (SEQ ID NO:2) were generated, including an 11-mer (NFGYDLYRVRS; SEQ ID NO:102) which has the first 11 bases of P18, and an 8-mer, (NFGYDLYR; SEQ ID NO:119), which has the first 8 bases of P18. These variants were screened in endothelial cell apoptosis and chemotaxis assays, seeking those that inhibit chemotaxis and induce apoptosis with specific activity similar or better than that of P18. In particular, microvascular endothelial cells were plated in inverted modified Boyden chambers, and chemotaxis induced with bFGF (10 ng/ml). The cells migrated to bFGF were counted in 10 high-powered fields. Results for the 8-mer (SEQ ID NO:119) and the 11-mer (SEQ ID NO:102) are shown in FIGS. 12A and 12B respectively.

[3] = test system: Human microvascular endothelial cells; experiment: endothelial cell apoptosis assay (ApopTag / TUNEL); type: cell-based; settings: for induction of endothelial cell apoptosis: HMVEC, overnight, low serum media, with or without bFGF, FIG. 4
Protocol: Confluent HMVEC cells growing on coverslips were incubated overnight in low serum media (0.2% FBS in MCDB)±PEDF peptides in the presence or absence of bFGF. ApopTag Fluorescein kit (Chemicon) was used to determine apoptotic cells. […] 3-5 fields (10×) were analyzed with epi-fluorescent microscope, and cells were counted using MetaMorph software. Apoptotic (FITC positive) cells were calculated as a % of total cells stained with PI per field.
The ability of the 34-mer fragments to induce endothelial cell apoptosis was next measured (FIG. 4).
In further experiments, human microvascular endothelial cells were treated with PEDF18 (SEQ ID NO:2) and PEDF11 (SEQ ID NO:102). Apoptosis was measured after 24 hours with terminal dUTP Nick-end Labeling (TUNEL) assay. […] It is noted that one advantage of PEDF11 over longer PEDF derivatives is in that this sequence is below critical length so it can be non-immunogenic during continuous applications.

[4] = test system: choroidal neovascularization; experiment: laser-induced choroidal neovascularization (CNV) mouse model; type: in vivo, mice
Protocol: This Example describes further characterization of P18 (PEDF18) and fragments thereof. […] Intravitreous injections of 1 μg (n=24), 10 μg (n=24) of PEDF18, or vehicle (n=21) were given at the day of laser photocoagulation-induced rupture of Bruch's membrane. Two weeks after laser induction, mice were euthanized and the area of CNV was measured. […] NV=neovascularization.

[5] = test system: Mouse renal carcinoma cells (Renca, ATCC); experiment: orthotopic renal cell carcinoma xenograft model (tumor growth and metastases); type: in vivo
Protocol: Mouse renal carcinoma cells (Renca, ATCC) were injected under the kidney capsule (0.5×10^6/site). Animals were randomly divided into 6 groups (8 per group) and the treatment started 5 days after inoculation (intraperitoneal injections). The following treatment groups were included: P18 (SEQ ID NO:2; 10 mg/kg); P18 (60 mg/kg); Rapamycin (R, 0.5 mg/kg); R+P18 (10 mg/kg) and R+P18 (60 mg/kg). The control group was treated with scrambled peptide, YFNGRSSPSNTNTYYVDRL (SEQ ID NO:51). After 17 days of treatment both kidneys were removed. To assess tumor growth, the weight of healthy kidney was subtracted from the weight of tumor-inoculated kidney, for each animal. The difference represents the weight of the tumor.
Metastases formation was also examined in the liver and lungs of the in the control treated animals and the groups treated with P18 and scrambled peptide (FIG. 9). The % affected organs is indicated under the representative images.

corneal angiogenesis = corneal angiogenesis assay; type: in vivo, mice; settings: bFGF 50 ng/pellet; scored day 5
Protocol: FIGS. 5A and 5B show the results of a corneal angiogenesis assay. The 34 mer and 18-mer peptides were incorporated with bFGF (50 ng/pellet) into slow-release sucralfate pellets, which were surgically implanted into the cornea of anesthetized mice, 0.5-1 mm from the vascular limbus. The responses were scored on day 5 post implantation and the ingrowth of blood vessels from the cornea to the pellet was considered a positive response. The responses were scored as positive corneas of total implanted: statistical significance was evaluated with Fisher's Exact test. P<0.05 was considered significant. […] Endothelial cells collected from implants by dilution/centrifugation, stained with FITC-lectin and quantified by flow cytometry (5D).
Finally, the peptides were tested in vivo, in the corneal angiogenesis and directed in vivo angiogenesis assay (DIVAA). […] The responses were scored on day 5 post implantation and the ingrowth of blood vessels from the cornea to the pellet was considered a positive response. The responses were scored as positive corneas of total implanted: statistical significance was evaluated with Fisher's Exact test. […] Endothelial cells collected from implants by dilution/centrifugation, stained with FITC-lectin and quantified by flow cytometry (5D).

## 34-mer: 34-mer PEDF peptide (amino acids 44-77 at the N-terminus), parental PEDF peptide (DPFFKVPVNKLAAAVSNFGYDLYRVRSSMSPTTN) [reference compound]
[1]
  growth of PC-3 prostate cancer xenografts: only marginal effect

## AAAVSNFGYDLYRVRSSTSPTTN [23-mer]
angiogenesis
  anti-angiogenic effect in DIVAA: failed to inhibit angiogenesis
[2]; bFGF 10 ng/ml
  inhibition of bFGF-induced migration (chemotaxis): comparable to PEDF at low concentrations and lost its inhibitory activity at higher doses
[3]
  induction of endothelial cell apoptosis: failed to induced apoptosis

## DLYRVRSSTSPTTN [14-mer]
[2]; bFGF 10 ng/ml
  inhibition of bFGF-induced migration (chemotaxis): inhibited bFGF-induced migration in a dose-dependent manner
[2]
  inhibitor activity on bFGF-induced migration compared with native PEDF: superior to that of native PEDF
[3]
  induction of endothelial cell apoptosis: very weak induction of apoptosis

## NFGYDLYRVRS [PEDF11]
[2]; bFGF 10 ng/ml, FIG. 12B
  concentration at which chemotaxis is inhibited: 1 to 10 nM
[2]; bFGF 10 ng/ml
  inhibition of bFGF-induced migration (chemotaxis): dose-dependent inhibition
[2]; chemotaxis inhibition and EC apoptosis, vs P18 (FIG. 3)
  efficacy compared with P18: comparable to that of P18
[3]
  concentration causing EC apoptosis: 10 to 100 nM

## NFGYDLYRVRSSTSPTTN [18-mer]
angiogenesis
  anti-angiogenic effect in DIVAA: showed the best anti-angiogenic characteristics
angiogenesis; in vitro and in vivo in the subcutaneous matrigel plug assays
  blocking of VEGF-induced angiogenesis: effectively blocks VEGF-induced angiogenesis
angiogenesis; mouse, in vivo
  activity in blocking angiogenesis compared with the 34-mer: more active in blocking angiogenesis than the original 34-mer
[1]
  growth of PC-3 prostate cancer xenografts: significantly inhibited the growth
[1]; FIG. 6
  tumor volume: substantial reduction in tumor volume
[4]; intravitreous 1 μg or 10 μg, two weeks after laser induction, vs vehicle
  area of CNV at laser sites: significantly smaller areas of neovascularization
[4]; mouse, laser-induced, listed as PEDF18
  choroidal neovascularization (overall effect): suppresses choroidal neovascularization; also recorded: effectively alleviated laser-induced choroidal neovascularization (CNV)
[2]; bFGF 10 ng/ml
  inhibition of bFGF-induced migration (chemotaxis): inhibited bFGF-induced migration in a dose-dependent manner
[2]
  inhibitor activity on bFGF-induced migration compared with native PEDF: superior to that of native PEDF
[5]; P18 alone, i.p., 17 days of treatment, vs scrambled peptide
  tumor weight: significant (P<0.0003) decrease in tumor weight
[5]; P18 treatment, FIG. 9
  liver metastases: eradicated liver metastases
Corneal angiogenesis
  anti-angiogenic effect in corneal angiogenesis assay: showed the best anti-angiogenic characteristics
[3]
  induction of endothelial cell apoptosis: more potent than the parental PEDF and as potent as the 34-mer
